Publication PMC12304869 (Obesity (Silver Spring, Md.), 2025)

Experiments:
[1] = cited from earlier work
[2] = cited from earlier work; remark: listed apart in the source
[3] = assay type: in vivo, male Sprague Dawley rats; conditions: DIO rats
[4] = DIO rats: body weight during daily s.c. semaglutide; assay type: in vivo, male Sprague Dawley rats; conditions: n = 9
[5] = Phase 2 part 2: pharmacodynamics; assay type: in vivo, human; conditions: part 2b

Substance | half‐life (t1/2) [1] | weight loss after 12 weeks of treatment ([2]; intranasal, 200‐μg dose, participants with obesity, placebo −2.8 kg) | treatment discontinuation due to nausea and vomiting ([2]; phase 1, intranasal 600 μg) | cumulative food intake from day 1 to 26, mean (SD) ([3]; vehicle + 30 nmol/kg semaglutide) | mean body weight change after 26 days, mean (SD) ([3]; vehicle + 30 nmol/kg semaglutide daily s.c., n = 9) | body weight loss after 26 days of treatment, mean (SD) ([4]; semaglutide 3 nmol/kg daily s.c.) | body weight loss after 26 days of treatment, mean (SD) ([4]; semaglutide 30 nmol/kg daily s.c.) | body weight loss after 26 days of treatment, mean (SD) ([4]; semaglutide 100 nmol/kg daily s.c.) | weight loss ([2]; semaglutide 2.4 mg alone, over 68 weeks) | change in body weight from baseline (week 32) to EOT (week 48) ([5]; placebo + semaglutide 2.4 mg weekly, ANCOVA estimate, FAS) | change in body weight from baseline to EOT ([5]; placebo + semaglutide 2.4 mg)
PYY3‐36: active, Y2‐selective cleaved form of the hormone peptide YY | roughly 10 min | -3.7 kg | a majority of participants receiving 600 μg discontinued treatment | – | – | – | – | – | – | – | –
semaglutide | – | – | – | 389 (53) g | −12.5% (3.4%) | −8.8% (2.9%) | −14.2% (3.0%) | −17.4% (5.7%) | 14.9% | −3.1% | -2.2 kg
